Publication PMC5538626, “Structural and functional analysis of the GABARAP interaction motif (GIM)” (EMBO Reports, 2017)
Entries after “also recorded” stand apart in the source; their conditions may differ. Ends that are not written are not given here.

Key:
[1] = tested on: LC3 and GABARAP families; conditions: cited from earlier work
Text: However, despite the ever‐increasing number of LC3/GABARAP interaction partners identified and perhaps the over‐reliance on LC3B as the main marker of autophagosomes, there is now emerging distinct roles of each LC3 and GABARAP subfamily. For example, both LC3 and GABARAP families are essential for autophagy flux 29; however, LC3s were reported to be involved in phagophore extension and GABARAPs required for autophagosome closure 29. Moreover, GABARAP can activate ULK1 complex to initiate autophagy, irrespective of its conjugation status 28. Indeed, this is also reflected in C. elegans homolog ...

[2] = tested on: GFP-LC3/GABARAPs; test: Co-immunoprecipitation of endogenous proteins with GFP-mATG8s in HeLa cells; conditions: 4 h KU-0063794 (10 μM) + chloroquine (20 μM), Fig 2C
[3] = tested on: 6xHis-tagged LC3B; test: Peptide array (ELISA), LC3B; conditions: for interaction with LC3B, Θ and Γ mutants: fold change over WT, n = 3, Fig EV5A; for interaction with LC3B, core motif combinations: mean ± SEM n = 5, Fig 4B
[4] = tested on: 6xHis-tagged LC3A; test: Peptide array (ELISA), LC3A; conditions: fold change over WT, mean ± SEM n = 3, Fig EV5A
[5] = tested on: 6xHis-tagged LC3C; test: Peptide array (ELISA), LC3C; conditions: fold change over WT, n = 3, Fig EV5A
[6] = tested on: GABARAP family (GABARAP, GABARAP-L1, GABARAP-L2); test: Peptide array (ELISA), GABARAP family; conditions: fold change over WT, n = 3, Fig EV5A
[7] = tested on: 6xHis-tagged LC3B and 6xHis-tagged GABARAP; test: Peptide array, preference GABARAP versus LC3B (absorbance ratio); assay type: binding, human; conditions: absorbance GABARAP/LC3B or LC3B/GABARAP, cut-off 1.5-fold, mean of n = 3, Figs 1A, EV1B and C
Text: A high number of autophagy receptors or adaptor structures have been reported, yet the basis for their selective interaction with individual members of the ATG8 family is not well understood. We speculated whether the LIR motif alone is able to confer selectivity towards a mATG8 subfamily and whether we could derive a subfamily consensus motif from analysis of known mATG8 interaction partners. To address this question, we screened an array of peptides (presented in Fig EV1A and described in Materials and Methods) with the LIR sequences of 30 known and validated autophagy receptors and adaptors (Table 1) against all six human mATG8s for binding (Figs 1A and EV1B and C). In brief, biotinylated peptides were immobilized on streptavidin‐coated 96‐well plates and incubated with His6‐tagged mATG8 proteins. After washing steps, peptide‐bound mATG8 was detected in an ELISA reader using anti‐His antibodies directly conjugated to HRP (horse radish peroxidase; Fig EV1A).
Dashed red line depicts 1.5‐fold change cut‐off.
Due to the wide range of affinities of various LIR sequences towards the LC3/GABARAP proteins, we have normalized our results by dividing values for LC3B interaction by the corresponding value for interaction with GABARAP (Fig 1A, purple bars) and vice versa (Fig 1A, blue bars) to highlight the potential subfamily selectivity of each LIR sequence tested. We classified ratios greater than 1.5‐fold as an indication of a preferential interaction towards that particular LC3 or GABARAP family member. […] Using this information, we generated a sequence plot (Fig 1B) to ascertain whether there were any common sequence features of the GABARAP‐specific interaction proteins. In addition to the 12 sequences identified in this experiment as preferential GABARAP subfamily interactors, we also included known GABARAP interactors that were not included in our screen (ALFY and KBTBD7). […] The previously identified PLEKHM1‐LIR 19 has a high degree of similarity to this sequence. […] However, it is unclear whether this is the case in vivo.
Biotinylated peptides (JPT, Germany) were immobilized on streptavidin‐coated 96‐well plates (#436014; Thermo Scientific) in 100 μl PBS containing 0.1% Tween‐20 (PT) and 1% BSA (PTB) overnight on a shaker at 8°C. After three washing steps with 200 μl PT, 100 μl of 1 μM HIS6‐tagged mATG fusion proteins isolated from E. coli in PTB was incubated with the immobilized peptides for 1 h at 8°C. After three washing steps with 200 μl PT, HIS6‐ATG8 bound to peptides was detected after 1‐h incubation with anti‐HIS‐HRP antibody (JP‐A00612; Genscript; 1:5,000 in 100 μl PTB) with the help of TMB substrate Reagent Set (BD OptEIA; 75 μl). The reaction (blue coloration) was stopped by addition of 60 μl 1 M H3PO4. Samples were analysed on a Synergy H1 ELISA reader from BioTek at 450 nm.

[8] = tested on: endogenous GABARAP; test: Co-immunoprecipitation of 3xFlag-FIP200 with endogenous GABARAP, HEK293 cells; assay type: cell-based; conditions: HEK293, anti-Flag beads, Western blot; Fig 5B
Protocol: Blots were probed for the presence of endogenous GABARAP and LC3B proteins. • 3xFlag‐FIP200 WT, E703V, I705V, E703V/I705V and F702A/I705A were overexpressed in HEK293 cells and immunoprecipitated using anti‐Flag beads and subjected to SDS–PAGE and Western blotting. Blots were probed for the presence of endogenous GABARAP and LC3B proteins. • GFP‐FUNDC1 WT, E19V, L21V, E19V/L21V and Y18A/L21A were overexpressed in HEK293 cells and either treated with vehicle only (DMSO) or 20 μM CCCP for 2 h, lysed and GFP‐FUNDC1 immunoprecipitated using anti‐GFP beads (or anti‐RFP beads as control) and subjected to SDS–PAGE and Western blotting. Blots were probed for the presence of endogenous GABARAP and LC3B proteins.

[9] = tested on: all six mATG8 proteins; test: Peptide array (ELISA), all six mATG8s; conditions: 450 nm, Fig 3E, n = 4
[10] = molecular target: LC3B; conditions: p62 LIR with LC3B; no method, no reference given; cited from earlier work
Text: Finally, we wanted to apply and subsequently verify our findings by targeted mutation of established autophagy players: p62, FUNDC1 and FIP200. Due to their impact, we specifically substituted existing residues at positions X1 and Γ of LIRs either singly or in combination to valine, thus driving the LIR sequences towards our GIM consensus sequence (Fig 1).

[11] = tested on: endogenous GABARAP; test: Co-immunoprecipitation of GFP-mCherry-p62/SQSTM1 with endogenous GABARAP, HEK293 cells; assay type: cell-based; conditions: HEK293, basal conditions, anti-RFP beads, Western blot; Fig 5A
[12] = tested on: endogenous LC3B; test: Co-immunoprecipitation of GFP-mCherry-p62/SQSTM1 with endogenous LC3B, HEK293 cells; assay type: cell-based; conditions: HEK293, basal conditions, anti-RFP beads, Western blot; Fig 5A
[13] = tested on: all LC3s; conditions: GST pull-down; cited from earlier work
Text: Due to the wide range of affinities of various LIR sequences towards the LC3/GABARAP proteins, we have normalized our results by dividing values for LC3B interaction by the corresponding value for interaction with GABARAP (Fig 1A, purple bars) and vice versa (Fig 1A, blue bars) to highlight the potential subfamily selectivity of each LIR sequence tested. We classified ratios greater than 1.5‐fold as an indication of a preferential interaction towards that particular LC3 or GABARAP family member.

Question: Which results are given for EDSFVEIRM [OPTN, LIR peptide 175–183]?
Answer: subfamily preference after phosphorylation ([1]; TBK1 phosphorylation at S177): switches to LC3B; subfamily preference ([1]; unmodified state): clearly shows preference for GABARAP

Question: For “DAVFDIITD [FYCO1, LIR peptide 1277–1285; in b48 the protein]”, which subfamily specificity [1] is on record?
Answer: LC3A‐specific adaptor

Question: Which “co-precipitation of endogenous protein with GFP-mATG8s” value [2] does the source give for “endogenous p62/SQSTM1: endogenous p62/SQSTM1 protein in HeLa cells” here?
Answer: co‐precipitated with all LC3/GABARAP to a similar extent

Question: What does the source list for “V638I: PLEKHM1-LIR array peptide V638I (EDEWVNIQY; also: biotin, position not given here)”?
Answer: interaction with LC3B, Θ and Γ mutants [3]: increase the affinity; interaction with LC3A, Θ and Γ mutants [4]: did not affect; interaction with LC3C, Θ and Γ mutants [5]: did not affect; interaction with GABARAP family, Θ and Γ mutants [6]: small decrease in the interaction

Question: With TDDFVMVPA [ULK1, LIR peptide 354–362] as the substance, how does the “preference GABARAP versus LC3B” value [7] read?
Answer: clear specificity towards GABARAP versus LC3B

Question: For DDFWVRVAP [KTBD6, LIR peptide 665–673], which “preference GABARAP versus LC3B” value ([7]; listed as KBTBD6) is on record?
Answer: strong preference for GABARAP versus LC3B

Question: What about the “preference GABARAP versus LC3B” value ([7]; listed as KBTDB6) of the same substance?
Answer: clear specificity towards GABARAP versus LC3B

Question: With TDDFVLVPH [ULK2, LIR peptide 350–358] as the substance, how does the “preference GABARAP versus LC3B” value [7] read?
Answer: clear specificity towards GABARAP versus LC3B

Question: For FVTV: 3xFlag-FIP200 E703V/I705V, which “interaction of FIP200 with endogenous GABARAP” value [8] is on record?
Answer: enhance the interaction between FIP200 (LIR sequence FDFETIPH) and GABARAP

Question: Which “interaction with all mATG8s, alanine scan” value [9] does the source give for “EDEAVNAQY [W635A/V638A, reference compound]” here?
Answer: completely disrupted all LIR–mATG8 interactions

Question: With EDEWCFLQY as the substance, how does the “interaction with LC3B, core motif combinations” value [3] read?
Answer: increased the interaction of PLEKHM1‐LIR with LC3B

Question: For EDEWCVLQY, which “interaction with LC3B, core motif combinations” value [3] is on record?
Answer: increased the interaction of PLEKHM1‐LIR with LC3B

Question: Which Kd [10] does the source give for “DDDWTHLSS [p62/SQSTM1, LIR peptide 335–343, peptide array]” here?
Answer: ~1500 nM

Question: What about the “preference GABARAP versus LC3B” value [7] of the same substance?
Answer: slight preference for GABARAP

Question: With ESDWVAVRP [JMY, LIR peptide 10–18] as the substance, how does the “preference GABARAP versus LC3B” value [7] read?
Answer: strong preference for GABARAP versus LC3B

Question: Which results are given for L341V: GFP-mCherry-p62/SQSTM1 L341V?
Answer: interaction of p62/SQSTM1 with endogenous GABARAP [11]: mild effect; also recorded: little effect on LC3/GABARAP‐specific interaction; interaction of p62/SQSTM1 with endogenous LC3B [12]: little effect on LC3/GABARAP‐specific interaction

Question: For “EDEWVNVQY [PLEKHM1, LIR peptide 632–640, peptide array]”, which “ranking of mATG8 binding” value [9] is on record?
Answer: shows the most potent interaction, followed by GABARAP‐L1, ‐L2, LC3C and LC3A, with LC3B as the weakest interactor

Question: And the “interaction with LC3s” value [13]?
Answer: can interact with all LC3s

Question: What about the “preference GABARAP versus LC3B” value [7] of the same substance?
Answer: clear preference for binding to GABARAP and GABARAP‐L2 over LC3B and LC3C; also recorded: strong preference for GABARAP versus LC3

Question: For “V638L: PLEKHM1-LIR array peptide V638L (EDEWVNLQY; also: biotin, position not given here)”, which “interaction with LC3B, Θ and Γ mutants” value [3] is on record?
Answer: increase the affinity

Question: And the “interaction with LC3A, Θ and Γ mutants” value [4]?
Answer: did not affect

Question: What about the “interaction with LC3C, Θ and Γ mutants” value [5] of the same substance?
Answer: did not affect

Question: What about the “interaction with GABARAP family, Θ and Γ mutants” value [6] of the same substance?
Answer: small decrease in the interaction

Question: Which subfamily specificity [1] does the source give for SEDYIIILP [NBR1, LIR peptide 729–737] here?
Answer: GABARAP‐L1‐specific receptor

Question: Which “preference GABARAP versus LC3B” value [7] does the source give for “DDSYEVLDL [FUNDC1, LIR peptide 152–160 (so in the source)]” here?
Answer: preferentially interacted with the LC3 group; also recorded: only LC3‐selective LIR; also recorded: only LC3B‐specific LIR
